Data from US12492163B2, “9H-fluorene derivatives or their pharmaceutically acceptable salts” (priority 2020, dated 2025).

Assays:
[1] = molecular target: human recombinant beta-secretase (hBACE1) (Homo sapiens (Human), UniProt P56817); assay: FRET assay, inhibition of human recombinant beta-secretase; type: biochemical; conditions: for IC50: read-out: hBACE-1 IC50; for inhibition at 50 µM: 50 μM inhibitor concentration, read-out: hBACE-1 % inh
Protocol: The FRET assay [Vassar, et al.] was used to test activity using 384-well black plates and a microplate reader (EnSpire Multimode; PerkinElmer; Waltham, MA, USA). The test was purchased from Life Technologies Polska Sp. z o.o. (Warsaw, Poland). […] Stock solutions of test compounds were prepared in DMSO and then further diluted with assay buffer (50 mM sodium acetate; pH 4.5) to the appropriate concentrations in the wells. In the first step of the test, 10 μl of the substrate (Rh-[…] quencher, based on the so-called Swedish APP mutation) was mixed with 10 μl of the test compound (or assay buffer; for blank sample). The enzyme reaction was initiated by adding 10 μl of enzyme (hBACE1, 1 U/ml). The reaction mixture was incubated at 25° C. for 60 minutes, then 10 μL of Stop solution (2.5 M sodium acetate) was added. After stopping the reaction, fluorescence was measured at 576 nm. The percentage of enzyme inhibition was calculated from the formula [1−(S60−S0)/(C60−C0)]×100, where S0 and S60 are the fluorescence of the test sample (containing the enzyme, substrate and test compound) at the start of the reaction and after 60 minutes, respectively, whereas C0 and C60 were analogous fluorescence intensities in the blank samples (containing enzyme, substrate and buffer). All test compounds were tested at a concentration of 50 μM in triplicate. […] A BACE1 IV inhibitor (Calbiochem, Merck; Nottingham, UK) [Stachel et al.] was used as a reference compound. […] IC50 values for all test compounds were calculated using non-linear regression (GraphPad Prism 5 [GraphPad Software, San Diego, CA, USA 5.00]) for the percentage of enzyme inhibition against the inhibitor concentration used.

[2] = molecular target: mGAT1 (Mus musculus (Mouse), UniProt P31648); assay: [3H]GABA uptake inhibition, mGAT1 in HEK293 cells; type: cell-based
Protocol: (§1) Exemplary compounds according to the invention were screened at the Ludwig-Maximilian University of Munich to determine the inhibitory ability towards four mouse GAT transporters (mGAT1-mGAT4). […] The biological material was stably transfected human embryonic kidney HEK293 cells, expressing genes to the appropriate transporters. The generated radioactivity was measured with a liquid scintillation counter. […] These determinations were made according to the procedure described in detail in A. Kragler, G. Höfner, K. T. Wanner, Novel parent structures for inhibitors of the murine GABA transporters mGAT3 and mGAT4, Eur. J. Pharmacol. 519 (2005) 43-47.

[3] = molecular target: mGAT4 (Mus musculus (Mouse), UniProt P31650); assay: [3H]GABA uptake inhibition, mGAT4 in HEK293 cells; type: cell-based; conditions: for pIC50 (+/−SEM) mGAT4 / IC50: GABA reuptake; for percentage of [3H]GABA reuptake retained, mGAT4: inhibitor at 100 μM, remaining reuptake; for IC50: read-out: pIC50 (+/−SEM) mGAT4 (converted)
Protocol: as §1

[4] = molecular target: human plasma butyrylcholinesterase (hBuChE) (Homo sapiens (Human), UniProt P06276); assay: Ellman's test, inhibition of human plasma butyrylcholinesterase; type: biochemical; conditions: for inhibition at 1 µM: 1 μM inhibitor concentration, read-out: hBuChE % inh
Protocol: (§2) The spectrophotometric Ellman's test [Ellman et al.] modified for assays in 96-well plates was used to test the activity. Reagents: 5,5′-dithiobis-(2-nitrobenzoic acid) (DTNB), eqBuChE and butyrylthiocholine iodide (BTC) were purchased from Sigma-Aldrich (Steinheim, Germany). hBuChE was from Vivonics (Bedford, MA, USA). The enzymes were prepared by dissolving in demineralized water to a concentration of 0.384 U/ml. Stock solutions of test compounds were prepared by dissolving in DMSO to a concentration of 0.0034 M. They were then diluted with water to obtain the appropriate concentrations in the wells. In the first step of the test, 25 μl of test compound (or DMSO/water mixture at the appropriate ratio for blank samples) was incubated in 0.1 M phosphate buffer (200 μl, pH=8.0) with DTNB (20 μl; 0.0025M) and with the appropriate enzyme (20 μl; eqBuChE or hBuChE) at 25° C. (animal enzyme) or 36° C. (human enzyme). After a 5 minutes incubation period, 20 μl of BTC solution (0.00375 M) was added. After another 5 minutes, the changes in absorbance of the solutions were measured at 412 nm using a multifunctional microplate reader (EnSpire Multimode; PerkinElmer; Waltham, MA, USA). All compounds were tested at a screening concentration of 10 μM (eqBuChE) or 1 μM (hBuChE). The percentage of enzyme inhibition was calculated from the equation 100-(S/B)×100, where S and B were the enzymatic activity in the test sample well and in the well without sample, respectively. […] All reactions were performed in triplicate. IC50 values were calculated using non-linear regression (GraphPad Prism 5 [GraphPad Software, San Diego, CA, USA 5.00]) for the percentage of enzyme inhibition against the inhibitor concentration used. Tacrine and donepezil were used as reference compounds.

[5] = molecular target: mGAT3 (Mus musculus (Mouse), UniProt P31649); assay: [3H]GABA uptake inhibition, mGAT3 in HEK293 cells; type: cell-based; conditions: for percentage of [3H]GABA reuptake retained, mGAT3: inhibitor at 100 μM, remaining reuptake
Protocol: as §1

[6] = molecular target: horse plasma butyrylcholinesterase (eqBuChE) (Equus caballus (Horse), UniProt P81908); assay: Ellman's test, inhibition of horse plasma butyrylcholinesterase; type: biochemical
Protocol: as §2

[7] = molecular target: Recombinant human Aβ1-42 peptide (Homo sapiens (Human), UniProt P05067); assay: Thioflavin T test, antiaggregation activity against beta-amyloid; type: biochemical; conditions: 10 μM test compound, 1.5 μM Aβ1-42; read-out: inh. Aβ aggr. % inh
Protocol: The thioflavin T test [Levine III] was used for the determinations. Recombinant human Aβ1-42 peptide (HFIP pretreated, Merck Millipore, Darmstadt, Germany) was dissolved in DMSO to form a 75 μM stock solution. The solution was further diluted in HEPES buffer (150 mM HEPES, pH 7.4, 150 mM NaCl) to a concentration of 7.5 μM. Then, the Aβ1-42 solution was added to the test compounds (black 96-well plates were used) and diluted with thioflavin T solution (10 μM final concentration). The final mixture contained 1.5 μM Aβ1-42, 10 μM test compound, and 3% of DMSO. Fluorescence was measured every 300 s (excitation wavelength was 440 nm, emission wavelength was 490 nm) with continuous mixing between measurements. A multifunction microplate reader (Synergy H4; BioTek Instruments, Inc., Winooski, VT, USA) was used to measure the fluorescence. Fluorescence started increasing after approximately 4 hours, plateaued after 20 hours and remained virtually unchanged for the next 28 hours of incubation. The plateau-phase fluorescence intensities (in the presence and absence of test compounds) were averaged and the mean fluorescence values for the respective wells at t=0 h were subtracted from them. […] IC50 values were calculated using non-linear regression (GraphPad Prism 5 [GraphPad Software, San Diego, CA, USA 5.00]) for the percentage of aggregation inhibition against the inhibitor concentration used.

[8] = molecular target: mGAT2 (Mus musculus (Mouse), UniProt P31651); assay: [3H]GABA uptake inhibition, mGAT2 in HEK293 cells; type: cell-based; conditions: for pIC50 (+/−SEM) mGAT2 / IC50: GABA reuptake; for IC50: read-out: pIC50 (+/−SEM) mGAT2 (converted)
Protocol: as §1

[9] = inhibitor at 100 μM, remaining reuptake

Chain of horse plasma butyrylcholinesterase (eqBuChE) (P81908 whole entry): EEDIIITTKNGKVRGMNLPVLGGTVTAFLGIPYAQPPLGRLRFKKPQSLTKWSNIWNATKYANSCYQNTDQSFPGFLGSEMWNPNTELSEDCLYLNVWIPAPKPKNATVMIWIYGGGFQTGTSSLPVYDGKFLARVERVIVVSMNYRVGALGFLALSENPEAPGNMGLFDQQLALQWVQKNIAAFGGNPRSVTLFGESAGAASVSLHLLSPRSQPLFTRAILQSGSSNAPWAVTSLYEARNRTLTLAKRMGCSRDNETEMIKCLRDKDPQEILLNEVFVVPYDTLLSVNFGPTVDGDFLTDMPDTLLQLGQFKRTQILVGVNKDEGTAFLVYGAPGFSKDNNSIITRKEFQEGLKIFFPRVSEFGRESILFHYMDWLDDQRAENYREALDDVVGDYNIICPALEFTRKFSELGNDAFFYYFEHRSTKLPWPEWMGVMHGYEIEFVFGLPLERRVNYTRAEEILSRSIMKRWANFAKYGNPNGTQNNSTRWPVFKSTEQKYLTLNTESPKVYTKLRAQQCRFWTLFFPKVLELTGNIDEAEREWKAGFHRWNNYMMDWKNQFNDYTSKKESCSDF
Chain of human plasma butyrylcholinesterase (hBuChE) (P06276 29-602): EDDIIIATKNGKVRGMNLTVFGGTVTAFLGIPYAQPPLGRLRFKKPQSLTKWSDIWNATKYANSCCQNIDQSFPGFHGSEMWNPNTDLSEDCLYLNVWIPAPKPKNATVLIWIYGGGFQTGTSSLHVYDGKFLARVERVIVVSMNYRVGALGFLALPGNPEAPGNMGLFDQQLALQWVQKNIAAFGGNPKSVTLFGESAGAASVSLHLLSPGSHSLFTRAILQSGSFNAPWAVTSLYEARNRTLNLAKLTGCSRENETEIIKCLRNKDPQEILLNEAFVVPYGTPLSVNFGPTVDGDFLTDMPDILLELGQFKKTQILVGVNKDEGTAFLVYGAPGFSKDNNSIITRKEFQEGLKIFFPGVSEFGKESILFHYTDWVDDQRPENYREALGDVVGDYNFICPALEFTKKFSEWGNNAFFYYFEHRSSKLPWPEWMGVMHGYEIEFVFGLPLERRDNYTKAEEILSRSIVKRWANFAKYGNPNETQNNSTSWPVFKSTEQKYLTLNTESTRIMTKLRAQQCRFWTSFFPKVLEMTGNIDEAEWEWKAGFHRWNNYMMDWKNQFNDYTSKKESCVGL
Chain of mGAT4 (P31650 whole entry): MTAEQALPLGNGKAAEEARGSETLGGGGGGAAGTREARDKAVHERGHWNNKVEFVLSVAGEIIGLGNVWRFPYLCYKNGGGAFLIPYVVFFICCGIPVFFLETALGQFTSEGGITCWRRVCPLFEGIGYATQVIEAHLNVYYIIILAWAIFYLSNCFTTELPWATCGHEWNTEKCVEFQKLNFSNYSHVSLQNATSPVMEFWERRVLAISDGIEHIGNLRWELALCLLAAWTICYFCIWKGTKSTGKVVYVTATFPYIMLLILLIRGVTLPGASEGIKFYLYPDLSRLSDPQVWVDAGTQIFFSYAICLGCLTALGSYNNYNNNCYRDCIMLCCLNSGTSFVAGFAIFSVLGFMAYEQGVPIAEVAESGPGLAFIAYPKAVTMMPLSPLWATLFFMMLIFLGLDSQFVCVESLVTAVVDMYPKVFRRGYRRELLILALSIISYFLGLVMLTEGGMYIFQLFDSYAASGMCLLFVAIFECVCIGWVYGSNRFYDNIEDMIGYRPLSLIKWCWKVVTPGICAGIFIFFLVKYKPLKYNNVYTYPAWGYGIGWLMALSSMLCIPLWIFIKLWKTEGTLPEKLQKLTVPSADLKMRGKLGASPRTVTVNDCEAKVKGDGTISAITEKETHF
Chain of mGAT3 (P31649 whole entry): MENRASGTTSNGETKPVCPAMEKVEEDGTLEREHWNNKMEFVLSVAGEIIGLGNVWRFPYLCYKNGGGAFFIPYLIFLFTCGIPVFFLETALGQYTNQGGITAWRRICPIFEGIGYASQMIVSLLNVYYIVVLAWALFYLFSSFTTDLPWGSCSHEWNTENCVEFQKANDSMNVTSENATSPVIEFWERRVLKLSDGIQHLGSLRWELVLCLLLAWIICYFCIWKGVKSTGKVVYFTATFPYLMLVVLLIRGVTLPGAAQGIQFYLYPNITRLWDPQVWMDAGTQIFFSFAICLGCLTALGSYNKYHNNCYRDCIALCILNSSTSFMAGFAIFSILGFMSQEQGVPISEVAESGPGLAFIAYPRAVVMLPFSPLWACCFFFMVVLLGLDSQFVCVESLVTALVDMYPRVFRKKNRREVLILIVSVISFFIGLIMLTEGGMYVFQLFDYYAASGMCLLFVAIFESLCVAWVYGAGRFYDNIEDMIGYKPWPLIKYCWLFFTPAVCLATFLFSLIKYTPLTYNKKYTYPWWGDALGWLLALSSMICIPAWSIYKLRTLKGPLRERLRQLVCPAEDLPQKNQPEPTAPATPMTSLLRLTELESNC
Chain of Recombinant human Aβ1-42 peptide (P05067 672-713): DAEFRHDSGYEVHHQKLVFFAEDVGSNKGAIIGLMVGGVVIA
Chain of mGAT2 (P31651 whole entry): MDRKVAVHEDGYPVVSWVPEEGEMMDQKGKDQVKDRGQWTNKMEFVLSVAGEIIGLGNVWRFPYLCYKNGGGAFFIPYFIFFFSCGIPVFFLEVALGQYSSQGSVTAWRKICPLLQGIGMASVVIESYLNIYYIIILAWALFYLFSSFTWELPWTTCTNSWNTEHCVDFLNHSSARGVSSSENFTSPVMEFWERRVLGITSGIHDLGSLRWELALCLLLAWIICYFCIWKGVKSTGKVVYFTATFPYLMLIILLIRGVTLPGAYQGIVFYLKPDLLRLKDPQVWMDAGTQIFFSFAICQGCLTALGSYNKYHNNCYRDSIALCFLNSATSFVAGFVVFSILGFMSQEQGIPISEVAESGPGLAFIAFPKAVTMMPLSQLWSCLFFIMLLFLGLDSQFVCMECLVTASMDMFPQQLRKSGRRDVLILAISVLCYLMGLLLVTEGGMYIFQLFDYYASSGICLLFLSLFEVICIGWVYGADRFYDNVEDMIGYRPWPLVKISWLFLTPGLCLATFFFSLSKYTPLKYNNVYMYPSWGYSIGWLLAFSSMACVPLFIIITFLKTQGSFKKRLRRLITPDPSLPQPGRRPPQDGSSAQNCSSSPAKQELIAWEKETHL
Chain of human recombinant beta-secretase (hBACE1) (P56817 46-501): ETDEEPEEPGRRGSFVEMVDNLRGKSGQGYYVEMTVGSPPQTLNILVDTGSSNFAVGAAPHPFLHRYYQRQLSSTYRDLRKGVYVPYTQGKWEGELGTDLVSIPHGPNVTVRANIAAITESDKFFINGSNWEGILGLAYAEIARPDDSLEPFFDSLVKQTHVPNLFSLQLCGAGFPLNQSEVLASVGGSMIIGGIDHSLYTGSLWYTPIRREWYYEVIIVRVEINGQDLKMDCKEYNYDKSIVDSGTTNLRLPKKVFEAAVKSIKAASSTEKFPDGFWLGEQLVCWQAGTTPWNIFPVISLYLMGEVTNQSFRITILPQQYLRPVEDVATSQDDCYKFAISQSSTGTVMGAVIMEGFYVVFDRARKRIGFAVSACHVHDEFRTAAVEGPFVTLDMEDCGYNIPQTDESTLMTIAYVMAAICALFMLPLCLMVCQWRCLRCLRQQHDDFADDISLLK

| Compound | IC50 [1] | pIC50 (+/−SEM) mGAT1 ([2]; GABA reuptake) | pIC50 (+/−SEM) mGAT4 [3] | IC50 [4] | pIC50 (+/−SEM) mGAT3 ([5]; GABA reuptake) | IC50 [6] | inhibition at 10 µM [7] | pIC50 (+/−SEM) mGAT2 [8] | percentage of [3H]GABA reuptake retained, mGAT4 [3] | inhibition at 1 µM [4] | inhibition at 10 µM ([6]; 10 μM inhibitor concentration, read-out: eqBuChE percent inhibition of enzyme) | percentage of [3H]GABA reuptake retained, mGAT3 [5] | percentage of [3H]GABA reuptake retained, mGAT1 [2, 9] | IC50 [3] | IC50 [8] | inhibition at 50 µM [1] | percentage of [3H]GABA reuptake retained, mGAT2 [8, 9] | IC50 ([2]; GABA reuptake, read-out: pIC50 (+/−SEM) mGAT1 (converted)) | IC50 ([5]; GABA reuptake, read-out: pIC50 (+/−SEM) mGAT3 (converted)) |
| --- | --- | --- | --- | --- | --- | --- | --- | --- | --- | --- | --- | --- | --- | --- | --- | --- | --- | --- | --- |
| O[C@H](CNCc1ccccc1)[C@H](Cc1ccccc1)NC1c2ccccc2-c2ccccc21 [Compound 1, (2R,3S)-3-((9H-fluoren-9-yl)amino)-1-(benzylamino)-4-phenylbutan-2-ol] | 10.1 µM | 4.96 | 5.11 +/− 0.01 | 0.196 µM | 5.15+/− 0.07 | 0.627 µM | 82.5% | 5.01 +/− 0.08 |  |  |  |  |  |  |  |  |  |  |  |
| CC(C)(C)c1cccc(CNC[C@@H](O)[C@H](Cc2ccccc2)NC2c3ccccc3-c3ccccc32)c1 [Compound 3, (2R,3S)-3-((9H-fluoren-9-yl)amino)-1-((3-(tert-butyl)benzyl)amino)-4-phenylbutan-2-ol] | 6.35 µM | 4.83 |  |  | 5.05 +/− 0.05 |  | 90.9% | 4.58 | 56% | 68% | 78.2% |  |  |  |  |  |  |  |  |
| COc1cccc(CNC[C@H](O)[C@H](Cc2ccccc2)NC2c3ccccc3-c3ccccc32)c1 [Compound 6, (2S,3S)-3-((9H-fluoren-9-yl)amino)-1-((3-methoxybenzyl)amino)-4-phenylbutan-2-ol] | 2.25 µM | 5.15 | 5.15 +/− 0.034 |  |  | 2.2 µM | 93.3% | 4.92 +/− 0.14 |  | 67.7% |  | 66% |  |  |  |  |  |  |  |
| COc1ccccc1CNC[C@H](O)[C@H](Cc1ccccc1)NC1c2ccccc2-c2ccccc21 [Compound 7, (2S,3S)-3-((9H-fluoren-9-yl)amino)-1-((2-methoxybenzyl)amino)-4-phenylbutan-2-ol] | 7.23 µM | 5.20 | 5.21 +/− 0.04 | 0.268 µM |  | 0.278 µM | 86.7% | 4.88 +/− 0.07 |  |  |  | 65% |  |  |  |  |  |  |  |
| O[C@@H](CNCC1CCCCC1)[C@H](Cc1ccccc1)NC1c2ccccc2-c2ccccc21 [Compound 11, (2S,3S)-3-((9H-fluoren-9-yl)amino)-1-((cyclohexylmethyl)amino)-4-phenylbutan-2-ol] | 8.6 µM |  |  |  | 4.94 | 0.955 µM | 78.6% | 4.97 | 59% | 76.5% |  |  | 54% |  |  |  |  |  |  |
| O=C(CC1c2ccccc2-c2ccccc21)N[C@@H](Cc1ccccc1)[C@@H](O)CNCc1ccccc1 [Compound 17, N-((2S,3S)-4-(benzylamino)-3-hydroxy-1-phenylbutan-2-yl)-2-(9H-fluorene-9-yl)acetamide] | 11.5 µM | 4.85 |  |  | 4.93 | 1.76 µM | 42.5% |  |  | 66.4% |  |  |  | 7.24 µM | 15.8 µM |  |  |  |  |
| CC(C)(C)c1ccc(CNC[C@H](O)[C@H](Cc2ccccc2)NC(=O)CC2c3ccccc3-c3ccccc32)cc1 [Compound 19, N-((2S,3S)-4-((4-(tert-butyl)benzyl)amino)-3-hydroxy-1-phenylbutan-2-yl)-2-(9H-fluoren-9-yl)acetamide] |  | 4.90 |  |  | 4.90 | 3.02 µM | 86.7% |  |  | 77.1% |  |  |  | 15.5 µM |  | 78.3% | 114% |  |  |
| COc1ccccc1CNC[C@H](O)[C@H](Cc1ccccc1)NC(=O)CC1c2ccccc2-c2ccccc21 [Compound 20, 2-(9H-fluorene-9-yl)-N-((2S,3S)-3-hydroxy-4-((2-methoxybenzyl)amino)-1-phenylbutan-2-yl)acetamide] |  |  |  |  |  | 2.2 µM | < 10% |  |  | 74.5% |  |  |  | 4.07 µM | 9.12 µM | 71.1% |  | 9.55 µM | 8.32 µM |
